One may read the Ki as the equilibrium dissociation constant of an inhibitor or competing ligand from its target. Read a low Ki as higher affinity.

We go through 2 compounds from PMC5562305, “Impact of novel palmitoylated prolactin-releasing peptide analogs on metabolic changes in mice with diet-induced obesity” (PLoS ONE, 2017).

This assay addresses T1, human NPFF2 (Homo sapiens, UniProt Q9Y5X5).
T1 construct: purchased Perkin Elmer; host or cells: CHO-K1 cell membranes
Description: Competitive binding of 125I-1DMe to human NPFF2 receptor membranes. The conditions noted are these: membranes of CHO-K1 cells overexpressing NPFF2, 0.1 nM radioligand, Cheng-Prusoff; mean ± SEM; SEM. As for the experimental part: CHO-K1 cells expressing the GPR10 receptor (Thermo Fisher Scientific Inc., Waltham, MA, USA) were grown according to the manufacturer's instructions. Saturation and competitive binding experiments were performed according to the methods of Motulsky and Neubig. […] The experiments were performed on plated cells that were incubated for 60 min at 25°C. Non-specific binding was determined using 10^−5 M PrRP31. The binding assays involving human NPFF2 receptor membranes obtained from Perkin Elmer were performed as described in [18].
Data are presented as the means ± SEM. The competitive binding curves were plotted using GraphPad software (San Diego, CA, USA), and the best fits were compared for single-binding-site models (IC50 values were obtained from nonlinear regression analysis). Inhibition constants (Ki) were calculated from the IC50 values using the Cheng-Prusoff equation [23]. The concentration of the radioligand was 0.1 nM for cell membranes of CHO-K1 cells overexpressing NPFF2 and 0.03 nM for CHO-K1 cells overexpressing GPR10.

Non-standard residues stand in square brackets, D forms with d. Residues, ends and D or L forms follow the SMILES beside them. NMeF = CN[C@@H](Cc1ccccc1)C(=O)O

T1 sequence (Q9Y5X5 whole entry): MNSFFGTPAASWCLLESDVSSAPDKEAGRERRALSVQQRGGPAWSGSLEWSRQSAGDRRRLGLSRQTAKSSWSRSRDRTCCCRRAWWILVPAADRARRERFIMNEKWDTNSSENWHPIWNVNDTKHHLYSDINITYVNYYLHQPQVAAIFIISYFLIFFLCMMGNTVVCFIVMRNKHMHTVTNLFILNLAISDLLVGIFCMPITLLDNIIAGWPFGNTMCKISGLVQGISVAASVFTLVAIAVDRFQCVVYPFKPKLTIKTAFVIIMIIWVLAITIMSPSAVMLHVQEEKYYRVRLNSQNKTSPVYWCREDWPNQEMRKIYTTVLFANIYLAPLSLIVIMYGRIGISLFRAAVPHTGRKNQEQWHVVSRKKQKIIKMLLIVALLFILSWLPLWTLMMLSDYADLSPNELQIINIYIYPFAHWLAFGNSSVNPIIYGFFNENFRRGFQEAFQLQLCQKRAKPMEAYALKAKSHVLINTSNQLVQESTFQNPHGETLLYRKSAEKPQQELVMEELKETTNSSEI

Consider `CC(C)C[C@H](NC(=O)[C@H](N)Cc1ccc(O)cc1)C(=O)N(C)[C@@H](Cc1ccccc1)C(=O)N[C@@H](CCC(N)=O)C(=O)N1CCC[C@H]1C(=O)N[C@@H](CCC(N)=O)C(=O)N[C@@H](CCCN=C(N)N)C(=O)N[C@@H](Cc1ccccc1)C(N)=O` [1DMe, reference compound] (H-[dY]L[NMeF]QPQRF-NH2), for which the affinity corresponds to a Ki of 1.8 ± 0.54 nM.

As for `CC[C@H](C)[C@H](NC(=O)CNC(=O)[C@H](CCCNC(=N)N)NC(=O)[C@H](CO)NC(=O)[C@H](C)NC(=O)[C@H](Cc1ccc(O)cc1)NC(=O)[C@H](Cc1c[nH]c2ccccc12)NC(=O)[C@H](C)NC(=O)[C@@H]1CCCN1C(=O)[C@H](CC(N)=O)NC(=O)[C@@H](NC(=O)[C@H](CC(=O)O)NC(=O)[C@@H]1CCCN1C(=O)[C@@H](NC(=O)[C@H](CCCNC(=N)N)NC(=O)[C@@H](NC(=O)[C@H](CCC(=O)O)NC(=O)[C@H](CCSC)NC(=O)[C@H](CO)NC(=O)[C@H](Cc1c[nH]cn1)NC(=O)[C@H](CCCNC(=N)N)NC(=O)[C@H](Cc1c[nH]cn1)NC(=O)[C@@H](NC(=O)[C@H](CCCNC(=N)N)NC(=O)[C@@H](N)CO)[C@@H](C)O)[C@@H](C)CC)[C@@H](C)O)[C@@H](C)CC)C(=O)N[C@@H](CCCNC(=N)N)C(=O)N1CCC[C@H]1C(=O)N[C@H](C(=O)NCC(=O)N[C@@H](CCCNC(=N)N)C(=O)N[C@@H](Cc1ccccc1)C(N)=O)C(C)C` [human PrRP31, reference compound], the Ki stood at 50 ± 24.3 nM.
